Experimental data from patent US7786176B2, “Vaginal treatment composition containing xylitol” (Kimberly-Clark Worldwide, Inc., priority 2005, dated 2010).
Entries after “also recorded” stand apart in the source; their conditions may differ.

What was measured:
Type in all cases: cell-based
Gardnerella vaginalis [1] = test: Gardnerella vaginalis optical density with sugars and sugar derivatives (Example 15); settings: 24 hours; 1.0% (wt/vol), FIG. 12
Procedure: A growth medium for Gardnerella vaginalis was prepared according to the manufacturer's instructions, and the pH of this medium was adjusted to pH 6.0 using 1 N HCl. D-ribose (99%, Calbiochem), D-arabinose (98%, Alfa Aesar), D-xylose (Aldrich), D-lyxose (99%, Avovado), D-arabitol (97%, Alfa Aesar), adonitol (99%, Alfa Aesar), xylitol (99%, Alfa Aesar), xylitol (98%, Danisco), and xylitol (98%, Aldrich) were then dissolved into the growth medium at a concentration of 1.0% (wt/vol). 0.9 milliliters of the culture medium was also added into a different culture tube as a control. Thereafter, 0.1 milliliter of Gardnerella vaginalis culture suspension (concentration of 1×10^6/milliliter) was added to each of the culture tubes, and then incubated overnight at 37° C., and the optical density was then measured after 24 hours at a wavelength of 595 nanometers. This was accomplished by pipetting 100 microliters of the control or sample solutions into 96-well microplates, and then using a ThermoMax Microplate Reader from Molecular Devices of Sunnyvale, Calif. to obtain the optical density readings. The results are depicted in FIG. 12.

Gardnerella vaginalis [2] = test: Zone of inhibition on agar plates, Gardnerella vaginalis (Examples 8, 11)
Procedure: (§1) A microorganism culture of 10^5 cfu (colony forming units)/ml in a 1× phosphate buffered saline (PBS) solution (diluted from 10×PBS LIQUID CONCENTRATE from VWR Cat. No. EM-6507] was used. One milliliter of the solution was plated on proper agar plates, depending on which microorganism was being tested. The agar plates were incubated at 35° C. for 4 hours. Three 4-millimeter diameter wells were then punched in each agar plate. A test sample of 100 microliters of 5% xylitol in sterilized 2-N-morpholino ethane sulfonic buffer (0.1 M 2-[morpholino]-ethanesulfonic acid, 0.9% NaCl, pH 4.7, prepared from BupH™ MES Buffer Saline Pack from Cat. No. 28390, Pierce Biotechnology, Inc., Rockford, Ill.) was added to one well of each plate. Into each of the other two wells were added MES buffer and 1% benzyl quats (diluted from BARDAC.® 205M, from Lonza Inc., Fair Lawn, N.J.) as negative and positive controls, respectively. The plates were incubated overnight at 35° C.
(§2) The following day, the “zone of inhibition” for each sample was then measured for Gardnerella vaginalis and Lactobacillus acidophilus activity. The “zone of inhibition” is a circular zone formed around the agar plate in which the growth of the microorganism is inhibited. […] However, when growth is inhibited, a clear zone is observed. The diameter of this clear zone may thus be used as an indicator of antimicrobial effectiveness.
(§3) Sorbitol, glucose, and xylitol were tested as described in Example 8.

Trichomonas vaginalis = test: Viable Trichomonas vaginalis cell count with xylitol (Example 12)
Procedure: Trichomonas vaginalis was obtained from the American Type Culture Collection (ATCC #30001). The culture medium was LYI-S-2 medium (ATCC medium 2154).
A sterile LYI-S-2 medium was prepared according to the manufacturer's instructions, and the pH of this medium was adjusted to pH 6.0 using 1 N HCl. Xylitol was then dissolved into the LYI-S-2 medium at concentrations of 0.5%, 3.0%, and 5.0% (wt/vol). 0.9 milliliters of xylitol and culture medium (as control) were also added into different culture tubes. Thereafter, 0.1 milliliter of Trichomonas vaginalis culture suspension (concentration of 1×10^6/milliliter) was added to each of the culture tubes, and then incubated at 35° C. on a 15 degree horizontal slant. The viable Trichomonas vaginalis cells in each tube were counted under a microscope after 24 and 48 hours. The above procedure was repeated four times for each concentration of xylitol and the control.

[3] = tested on: Lactobacillus acidophilus; test: Zone of inhibition on agar plates, Lactobacillus acidophilus (Examples 8, 11)
Procedure: as §1, §2, §3

Gardnerella vaginalis [4] = test: Gardnerella vaginalis plate count after treatment with gel compositions (Example 6)
Procedure: Gardnerella vaginalis was obtained from the American Type Culture Collection (ATCC #14018). The culture medium was Casman's medium base (BD 229010) with 5% rabbit blood (ATCC medium 70).
Initially, eight (8) solutions were formed as set forth below in Table 4.
Samples 1-2 were prepared by dissolving the KELCOGEL® (0.07 grams) and/or xylitol (0.44 grams) into 10 milliliters of water heated to between 70° C. to 80° C. Samples 3-4 and 6 were formed by first autoclaving a gallic acid stock solution (0.75 grams of gallic acid/20 mL water), autoclaving, and then adding 200 microliters of sterile gallic acid (0.0075 grams) to each sterile solution. Sample 5 was formed by dissolving 0.44 grams of xylitol in deionized water, followed by autoclaving. Sample 7 was formed by dissolving 0.44 grams of xylitol in sterilized growth medium for Gardnerella vaginalis and then filtering. The amount of xylitol was selected to yield isotonic solutions. […]
Upon formation, 1 milliliter of each control or sample solution was then added into a culture tube, followed by the addition of 0.8 milliliters of growth medium for Gardnerella vaginalis. […] After 24 and 48 hours, the optical density was measured for each sample at wavelengths of 450 and 595 nanometers. […] The number of colonies on each plate was counted using ProtoCol® software from Synbiosis of Frederick, Md. […]

Gardnerella vaginalis [5] = test: Plate count after 6 hours treatment, Gardnerella vaginalis (Example 10); settings: all five concentrations, 1-5%
Procedure: (§4) Test compounds were dissolved in culture media to form a suspension. Control or xylitol solutions (0.9 milliliters) were filtered and added into culture tubes. To these solutions, 0.1 milliliter of the Gardnerella vaginalis or Lactobacillus acidophilus suspension was then added at a concentration of around 10^6 cfu/milliliter. The culture tubes were incubated at 37° C. for 6 hours. The samples in the culture tubes were then diluted at 1, 10 and 100 times, and 100 microliters of each dilution was plated onto agar plates with WASP (Whitely Automatic Spiral Plate) spiral plating equipment from Don Whitely Scientific Limited, USA. The plates were incubated overnight at 35° C., and the numbers of colonies were counted on each plate by either ProtoCol® from Synbiosis, Frederick, Md., USA Whitely Scientific Limited, USA or by hand count. The results are shown below in Tables 7-8 and in FIG. 6.

Candida albicans = Candida albicans viable cell count with xylitol (Example 14); settings: 24 hours; 1%, 2%, 3%, 4%, and 5.0% (wt/vol), FIG. 11
Procedure: A YM culture medium was prepared according to the manufacturer's instructions, and the pH of this medium was adjusted to pH 6.0 using 1 N HCl. Xylitol was then dissolved into the YM medium at concentrations of 1%, 2%, 3%, 4%, and 5.0% (wt/vol). 0.9 milliliters of the culture medium were also added into a different culture tube as a control. Thereafter, 0.1 milliliter of Candida albicans culture suspension (concentration of 1×10^6/milliliter) was added to each of the culture tubes, and then incubated at 37° C. The viable Candida albicans cells in each tube were counted under a microscope after 24 hours. The above procedure was repeated four times for each concentration and the control.

Gardnerella vaginalis [6] = test: Optical density growth test, Gardnerella vaginalis (Example 9); settings: 2, 4, 6 and 24 hours, FIG. 5
Procedure: (§5) Test compounds were dissolved in culture media to form a suspension. Control or xylitol solutions (0.9 milliliters) were filtered and added into culture tubes, and to this was added 0.1 milliliter of either the Gardnerella vaginalis or Lactobacillus acidophilus suspension at a concentration of around 10^6 cfu/milliliter. The culture tubes were then incubated overnight at 37° C., whereafter the optical density was measured at 2, 4, 6 and 24 hours by pipetting 100 microliters of the control or sample solutions into 96-well microplates, and then using a ThermoMax Microplate Reader (Molecular Devices of Sunnyvale, Calif.) to obtain the optical density readings at 590 or 600 nm wavelengths. […] The inhibition effect remained evident throughout the 24-hour experimental period.

[7] = tested on: Lactobacillus acidophilus; test: Plate count after 6 hours treatment, Lactobacillus acidophilus (Example 10); settings: 1% and 5% xylitol
Procedure: as §4

[8] = tested on: Lactobacillus acidophilus; test: Optical density growth test, Lactobacillus acidophilus (Example 9); settings: 2, 4, 6 and 24 hours, FIG. 7
Procedure: as §5

[9] = 5% in MES buffer pH 4.7, 100 microliters per well
[10] = zone of inhibition testing, concentrations as in Tables 6 and 9

Row | Structure (SMILES) | Gardnerella vaginalis cell count versus control (optical density 595 nanometers) (Gardnerella vaginalis [1]) | Zone of inhibition, Gardnerella vaginalis (Gardnerella vaginalis [2]; [9]) | Zone of inhibition, Gardnerella vaginalis (Gardnerella vaginalis [2]; 10%) | Effect on Gardnerella vaginalis (Gardnerella vaginalis [2]; [10]) | Trichomonas vaginalis cell count versus control (Trichomonas vaginalis; 24 hours, 0.5%, 3.0%, and 5.0% (wt/vol), FIG. 8) | Trichomonas vaginalis cell count versus control (Trichomonas vaginalis; 48 hours, FIG. 9) | Live Trichomonas vaginalis cells (Trichomonas vaginalis; 48 hours, 3% and 5% xylitol) | Zone of inhibition, Lactobacillus acidophilus [3, 9] | Zone of inhibition, Lactobacillus acidophilus ([3]; 10%) | Effect on Lactobacillus acidophilus [3, 10] | Average Plate Count (Gardnerella vaginalis [4]; 24-hr samples, 4.4 wt/vol % xylitol in growth medium) | Effect on Gardnerella vaginalis growth (Gardnerella vaginalis [4]; Example 6) | Inhibition of Gardnerella vaginalis growth compared to control (Gardnerella vaginalis [5]) | Candida albicans cell count versus control (Candida albicans) | Inhibition of Gardnerella vaginalis growth (optical density) (Gardnerella vaginalis [6]) | Inhibition of Lactobacillus acidophilus growth [7] | Inhibition of Lactobacillus acidophilus growth (optical density) [8]
1 | O=C[C@H](O)[C@H](O)[C@H](O)CO [D-ribose] | significantly reduced | – | – | – | – | – | – | – | – | – | – | – | – | – | – | – | –
2 | OC[C@@H](O)[C@H](O)[C@@H](O)CO [xylitol] | significantly reduced | 4 mm | 4 mm | inhibited; also recorded: inhibitory effect | significantly reduced | even more significant inhibitory effect | No live Trichomonas vaginalis cells were observed | 0 mm | 0 mm | did not affect the growth | 2.40 × 10^4 | significant inhibition | significant inhibition | significantly reduced | significant inhibition | did not exhibit any significant inhibition | did not exhibit any significant inhibition
